# Several values for one entry are separate records, joined by “and”; a condition that tells them apart may be missing. Equal entries are not always repeated.
# Columns and labels:
# house dust mite = test: House dust mite counts on treated filter paper; type: in vivo, Dermatophagoides spp; conditions: per replicate; for 2 week count (mite count): 2 weeks at 25° C. and 75% RH
# Description: A filter paper (90 mm diameter) was taken and placed in a Petri dish of the same dimensions. The filter paper was then wetted throughout with the test compound, using a small air pump sprayer. The wetted filter paper was then allowed to dry in free flowing air. 200 mg dust mite medium, containing roughly 500 mites/g, was placed on the filter paper and the number of mites counted under a microscope. The arena was then left for 2 weeks on an incubator at 25° C. and 75% RH. After 2 weeks the number of mites in the arena was counted for a second time. This experiment was repeated 3 times with the test compound and a further 3 times using water as a control.
# [1] = tested on: Plutella xylostella eggs (Waite strain); test: Reversal of ovicidal effect by added metal ions (FeSO4), Plutella eggs; type: in vivo
# Description: (§1) Within 24 hours of collection the following experimental design was chosen. Batches of eggs were exposed to 10 mM 6,6′-dimethyl-2,2′-dipyridyl for 2 seconds while additional batches of eggs were exposed to the solvent only (Methanol) for 2 seconds. All batches of eggs were allowed to air dry for 20 minutes at room temperature. The eggs were then given a 2 second exposure to FeSO4 at either 10, 5 or 1 mM, air dried and put in the incubator at 24° C. and allowed to hatch over the next 6 days. In addition, a positive control of 10 mM 6,6′-dimethyl-2,2′-dipyridyl was set up in which eggs were exposed to this compound for 2 seconds, air dried and placed in the incubator.
# as §1, with “10 mM 5,5′-dimethyl-2,2′-dipyridyl for 2” for “10 mM 6,6′-dimethyl-2,2′-dipyridyl for 2”, “FeSO4 at 10, 5” for “FeSO4 at either 10, 5”, “put in an incubator at” for “put in the incubator at”, “of 10 mM, 5,5′-dimethyl-2,2′-dipyridyl was set” for “of 10 mM 6,6′-dimethyl-2,2′-dipyridyl was set”
# [2] = tested on: Third stage H. contortus larvae; test: Survival of third stage H. contortus larvae (L3 to L4); type: in vivo, Haemonchus contortus
# Description: Third stage H. contortus larvae were exposed to varying concentrations of 5,5′-dimethyl-2,2′-dipyridyl and the effects on moulting from L3 to L4 examined. The larvae were either exsheathed (their L2 sheath was removed chemically) or unexsheathed (their L2 sheaths were intact). The larvae were exposed to varying concentrations of 5,5′-dimethyl-2,2′-dipyridyl added to their culture media of DMEM and the effects on larval survival monitored over time. Following a 30 minute incubation at 37° C., greater than 90% of the exsheathed larvae exposed to 1 and 0.5 mM of the compound appeared dead. […] By day six post exposure greater than 90% of the larvae appeared to have died in the treatment groups while the control larvae appeared healthy.
# [3] = tested on: Plutella xylostella eggs (Waite strain); test: Plutella xylostella egg hatch (egg dip); conditions: 10 and 1 mM; cloth or parafilm
# head lice eggs = test: Formulated compound on egg hatching in head lice; type: in vivo; conditions: 20 mM formulation
# Description: Gravid female lice were permitted to lay eggs. The eggs were counted, inspected under a light microscope and all eggs that appeared undamaged were allocated to one of two treatment groups. One group was exposed to 5′-dimethyl-2,2′-dipyridyl in a formulation, while the second group was exposed to the formulation only. The protocol was as follows:
# Treatments: 5′-dimethyl-2,2′-dipyridyl (20 mM) n=10 • Vehicle control only n=10
# Exposure time: 10 minutes
# Wash time: 1 minute @˜37° C.
# Incubation: All eggs were placed at 31° C. in a humid incubator and monitored for signs of development specifically of the eyes and subsequent hatching, see Table 21.
# H. contortus eggs = test: Haemonchus contortus egg hatch; type: in vivo; conditions: 180 and 18 ug/mL (equivalent to 1 and 0.1 mM); 48 hours at 25° C.
# Description: In an attempt to improve control of H. contortus the effects of the compound 5,5′-dimethyl-2,2′-dipyridyl was examined on H. contortus eggs. Eggs were recovered from the faeces of infected sheep using a standard sucrose floatation method. The eggs were corrected to a density of approximately 2,500 eggs per mL and were then exposed to varying concentrations of compound and incubated for 48 hours at 25° C. The eggs were then examined to determine the ovicidal efficacy of the compound in comparison to untreated control and a solvent only control.
# In addition, the ovicidal efficacy of the compound 2-acetyl-1-tetralone was examined against H. contortus (FIG. 10). The same protocol was used as described for 5,5′-dimethyl-2,2′-dipyridyl.
smiles,measurement,setting,value
"Cc1ccc(-c2ccc(C)cn2)nc1 [5,5′-dimethyl-2,2′-dipyridyl]",2 week count (mite count),house dust mite; listed as Test Compound,50 and 90
same,2 week count (mite count),house dust mite; listed as Test compound,74
same,1 hour count (mite count),house dust mite; listed as Test Compound,61 and 104
same,1 hour count (mite count),house dust mite; listed as Test compound,76
same,% Inhibition relative to the FeSO4 controls,[1]; 10 mM compound followed by 2 second exposure to 1 mM FeSO4,0%
same,% Inhibition relative to the FeSO4 controls,[1]; 10 mM compound followed by 2 second exposure to 5 mM FeSO4,0%
same,% Inhibition relative to the FeSO4 controls,[1]; 10 mM compound followed by 2 second exposure to 10 mM FeSO4,8%
same,appearance of unexsheathed larvae,"[2]; 10 μM, up to 6 days post exposure",appeared normal
same,effects on unexsheathed larvae compared to control larvae,[2]; up to 3 days post exposure,no adverse effects
same,egg hatching of Plutella eggs (Tables 10 and 11),[3],significantly inhibit
same,egg hatching in head lice,head lice eggs; 10 minutes exposure,significantly suppress
same,eggs that failed to hatch,head lice eggs; the eggs other than the two that developed,80%
same,ovicidal efficacy on H. contortus eggs (FIG. 8),H. contortus eggs,potently ovicidal
